Assay: recombinant UMI read abundance after kanamycin selection (control-corrected) (log10(CPM+1)); higher = more efficient recombination; extreme values may be limits of the assay; sequences stand for … in AGTGCAGAGAAAATCGGCCAGTTTTCTCTGCCTGCAGTCCGCATGCCGTGGGACCCCTTGGGTTCTAACCTGTTGCCTAGATTTATGCAGCGGACTGCCTTTCTCCCAAAGTGATAAACCGG…AGGTTGGTTTCACT; site = the 11-nt donor
Method in brief: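 Pooled Escherichia coli screen of donor and donor-binding-loop pairs for the IS621 bridge recombinase. Each pair sits with a 12-nt UMI on a plasmid carrying a promoterless kanamycin gene. The library was co-electroporated with a target plasmid encoding a fixed target and T7-inducible recombinase, then plated with IPTG (0.07 mM) plus kanamycin, or unselected, each in two replicates. Recombinant UMIs were PCR-amplified across the donor–target junction and sequenced. Counts became CPM, averaged over replicates, scaled by control-derived factors and reported as log10(CPM+1).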
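Further: IS621 bridge recombinase in Escherichia coli cells against a fixed T5 target plasmid.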

Sequence | recombinant UMI read abundance (log10)
AGCCTAGCATGGACCGGTTTTCCCGGTAATCCGTATTTGTT (site AACCTAGCTAA) | 0.00661
AGCCTAGCATGGACCGGTTTTCCCGGTAATCCGTATTTGTT (site ACCCTAGCTAA) | 0.0311
AGCCTAGCATGGACCGGTTTTCCCGGTAATCCGTATTTGTT (site AGACTAGCTAA) | 0.00397
AGCCTAGCATGGACCGGTTTTCCCGGTAATCCGTATTTGTT (site AGCATAGCTAA) | 0.00842
AGCCTAGCATGGACCGGTTTTCCCGGTAATCCGTATTTGTT (site AGCCAAGCTAA) | 0.0196
AGCCTAGCATGGACCGGTTTTCCCGGTAATCCGTATTTGTT (site AGCCCAGCTAA) | 0.00418
AGCCTAGCATGGACCGGTTTTCCCGGTAATCCGTATTTGTT (site AGCCGAGCTAA) | 0.0175
AGCCTAGCATGGACCGGTTTTCCCGGTAATCCGTATTTGTT (site AGCCTAACTAA) | 0.0384
AGCCTAGCATGGACCGGTTTTCCCGGTAATCCGTATTTGTT (site AGCCTACCTAA) | 0.0078
AGCCTAGCATGGACCGGTTTTCCCGGTAATCCGTATTTGTT (site AGCCTAGCTAA) | 0.0154
AGCCTAGCATGGACCGGTTTTCCCGGTAATCCGTATTTGTT (site AGCCTAGCTAC) | 0
AGCCTAGCATGGACCGGTTTTCCCGGTAATCCGTATTTGTT (site AGCCTAGCTAG) | 0
AGCCTAGCATGGACCGGTTTTCCCGGTAATCCGTATTTGTT (site AGCCTAGCTAT) | 0.0124
AGCCTAGCATGGACCGGTTTTCCCGGTAATCCGTATTTGTT (site AGCCTAGCTCA) | 0.0329
AGCCTAGCATGGACCGGTTTTCCCGGTAATCCGTATTTGTT (site AGCCTAGCTGA) | 0
AGCCTAGCATGGACCGGTTTTCCCGGTAATCCGTATTTGTT (site AGCCTAGCTTA) | 0.00455
AGCCTAGCATGGACCGGTTTTCCCGGTAATCCGTATTTGTT (site AGCCTATCTAA) | 0.00805
AGCCTAGCATGGACCGGTTTTCCCGGTAATCCGTATTTGTT (site AGCCTCGCTAA) | 0.0288
AGCCTAGCATGGACCGGTTTTCCCGGTAATCCGTATTTGTT (site AGCCTGGCTAA) | 0.0296
AGCCTAGCATGGACCGGTTTTCCCGGTAATCCGTATTTGTT (site AGCCTTGCTAA) | 0.0186
AGCCTAGCATGGACCGGTTTTCCCGGTAATCCGTATTTGTT (site AGCGTAGCTAA) | 0.00795
AGCCTAGCATGGACCGGTTTTCCCGGTAATCCGTATTTGTT (site AGCTTAGCTAA) | 0.0228
AGCCTAGCATGGACCGGTTTTCCCGGTAATCCGTATTTGTT (site AGGCTAGCTAA) | 0.00253
AGCCTAGCATGGACCGGTTTTCCCGGTAATCCGTATTTGTT (site AGTCTAGCTAA) | 0.0113
AGCCTAGCATGGACCGGTTTTCCCGGTAATCCGTATTTGTT (site ATCCTAGCTAA) | 0.0142

Sequence | recombinant UMI read abundance (log10)
AGCCTAGCATGGACCGGTTTTCCCGGTAATCCGTATTTGTT (site CGCCTAGCTAA) | 0.00222
AGCCTAGCATGGACCGGTTTTCCCGGTAATCCGTATTTGTT (site GGCCTAGCTAA) | 0.0159
AGCCTAGCATGGACCGGTTTTCCCGGTAATCCGTATTTGTT (site TGCCTAGCTAA) | 0.00782
AGCCTGGCATGGACCGGTTTTCCCGGTAATCCGTATTTGAC (site AGCCTGGCTGT) | 0
AGCCTTTCATGGACCGGTTTTCCCGGTAATCCGTATTTGAA (site AGCCTTTCTAT) | 0
AGCCTTTCATGGACCGGTTTTCCCGGTAATCCGTATTTGAA (site AGCCTTTCTCT) | 0.00501
AGCCTTTCATGGACCGGTTTTCCCGGTAATCCGTATTTGAA (site AGCCTTTCTGT) | 0
AGCCTTTCATGGACCGGTTTTCCCGGTAATCCGTATTTGAA (site AGCCTTTCTTT) | 0
AGCCTTTCATGGACCGGTTTTCCCGGTAATCCGTATTTGAC (site AACCTTTCTGT) | 0
AGCCTTTCATGGACCGGTTTTCCCGGTAATCCGTATTTGAC (site ACCCTTTCTGT) | 0
AGCCTTTCATGGACCGGTTTTCCCGGTAATCCGTATTTGAC (site AGACTTTCTGT) | 0
AGCCTTTCATGGACCGGTTTTCCCGGTAATCCGTATTTGAC (site AGCATTTCTGT) | 0.00674
AGCCTTTCATGGACCGGTTTTCCCGGTAATCCGTATTTGAC (site AGCCATTCTGT) | 0
AGCCTTTCATGGACCGGTTTTCCCGGTAATCCGTATTTGAC (site AGCCCTTCTGT) | 0
AGCCTTTCATGGACCGGTTTTCCCGGTAATCCGTATTTGAC (site AGCCGTTCTGT) | 0
AGCCTTTCATGGACCGGTTTTCCCGGTAATCCGTATTTGAC (site AGCCTATCTGT) | 1.73
AGCCTTTCATGGACCGGTTTTCCCGGTAATCCGTATTTGAC (site AGCCTCTCTGT) | 0
AGCCTTTCATGGACCGGTTTTCCCGGTAATCCGTATTTGAC (site AGCCTGTCTGT) | 0
AGCCTTTCATGGACCGGTTTTCCCGGTAATCCGTATTTGAC (site AGCCTTACTGT) | 0
AGCCTTTCATGGACCGGTTTTCCCGGTAATCCGTATTTGAC (site AGCCTTCCTGT) | 0
AGCCTTTCATGGACCGGTTTTCCCGGTAATCCGTATTTGAC (site AGCCTTGCTGT) | 0
AGCCTTTCATGGACCGGTTTTCCCGGTAATCCGTATTTGAC (site AGCCTTTCTAT) | 0
AGCCTTTCATGGACCGGTTTTCCCGGTAATCCGTATTTGAC (site AGCCTTTCTCT) | 0.00414
AGCCTTTCATGGACCGGTTTTCCCGGTAATCCGTATTTGAC (site AGCCTTTCTGA) | 0
AGCCTTTCATGGACCGGTTTTCCCGGTAATCCGTATTTGAC (site AGCCTTTCTGC) | 0

Sequence | recombinant UMI read abundance (log10)
AGCCTTTCATGGACCGGTTTTCCCGGTAATCCGTATTTGAC (site AGCCTTTCTGG) | 0
AGCCTTTCATGGACCGGTTTTCCCGGTAATCCGTATTTGAC (site AGCCTTTCTGT) | 0
AGCCTTTCATGGACCGGTTTTCCCGGTAATCCGTATTTGAC (site AGCCTTTCTTT) | 0
AGCCTTTCATGGACCGGTTTTCCCGGTAATCCGTATTTGAC (site AGCGTTTCTGT) | 0
AGCCTTTCATGGACCGGTTTTCCCGGTAATCCGTATTTGAC (site AGCTTTTCTGT) | 0
AGCCTTTCATGGACCGGTTTTCCCGGTAATCCGTATTTGAC (site AGGCTTTCTGT) | 0
AGCCTTTCATGGACCGGTTTTCCCGGTAATCCGTATTTGAC (site AGTCTTTCTGT) | 0
AGCCTTTCATGGACCGGTTTTCCCGGTAATCCGTATTTGAC (site ATCCTTTCTGT) | 0
AGCCTTTCATGGACCGGTTTTCCCGGTAATCCGTATTTGAC (site CGCCTTTCTGT) | 0
AGCCTTTCATGGACCGGTTTTCCCGGTAATCCGTATTTGAC (site GGCCTTTCTGT) | 0
AGCCTTTCATGGACCGGTTTTCCCGGTAATCCGTATTTGAC (site TGCCTTTCTGT) | 0
AGCCTTTCATGGACCGGTTTTCCCGGTAATCCGTATTTGCC (site AGCCTTTCTGA) | 0
AGCCTTTCATGGACCGGTTTTCCCGGTAATCCGTATTTGCC (site AGCCTTTCTGC) | 0
AGCCTTTCATGGACCGGTTTTCCCGGTAATCCGTATTTGCC (site AGCCTTTCTGG) | 1.05
AGCCTTTCATGGACCGGTTTTCCCGGTAATCCGTATTTGCC (site AGCCTTTCTGT) | 0
AGCGCAGCATGGACCGGTTTTCCCGGTAATCCGTATTTGCG (site AGCGCAGCTCG) | 1.01
AGCGCAGCATGGACCGGTTTTCCCGGTAATCCGTATTTGGG (site AGCACAGCTCC) | 0
AGCGCAGCATGGACCGGTTTTCCCGGTAATCCGTATTTGGG (site AGCCCAGCTCC) | 0.0111
AGCGCAGCATGGACCGGTTTTCCCGGTAATCCGTATTTGGG (site AGCGCAGCTCC) | 0.0103
AGCGCAGCATGGACCGGTTTTCCCGGTAATCCGTATTTGGG (site AGCTCAGCTCC) | 0.0119
AGCGCGACATGGACCGGTTTTCCCGGTAATCCGTATTTGAG (site AGCGCGACTCT) | 1.27
AGCGGTCCATGGACCGGTTTTCCCGGTAATCCGTATTTGAC (site AGCGGTCCTGT) | 0
AGCTAACCATGGACCGGTTTTCCCGGTAATCCGTATTTGAA (site AGCTAACCTTT) | 0.00558
AGCTAACCATGGACCGGTTTTCCCGGTAATCCGTATTTGTG (site AGCTAACCTCA) | 0.00444
AGCTACGCATGGACCGGTTTTCCCGGTAATCCGTATTTGGG (site AGCTACGCTCC) | 0.0157
